These results are taken from patent US20230118911A1, “PROTEOLYSIS TARGETING CHIMERA (PROTAC) FOR DEGRADATION OF AURORA A-KINASE” (Julius-Maximilians-Universitaet Wuerzburg, priority 2020, published 2023).

The target of assay [1] is T1, Aurora-A (Homo sapiens, UniProt O14965).
T1 sequence (O14965 1-403): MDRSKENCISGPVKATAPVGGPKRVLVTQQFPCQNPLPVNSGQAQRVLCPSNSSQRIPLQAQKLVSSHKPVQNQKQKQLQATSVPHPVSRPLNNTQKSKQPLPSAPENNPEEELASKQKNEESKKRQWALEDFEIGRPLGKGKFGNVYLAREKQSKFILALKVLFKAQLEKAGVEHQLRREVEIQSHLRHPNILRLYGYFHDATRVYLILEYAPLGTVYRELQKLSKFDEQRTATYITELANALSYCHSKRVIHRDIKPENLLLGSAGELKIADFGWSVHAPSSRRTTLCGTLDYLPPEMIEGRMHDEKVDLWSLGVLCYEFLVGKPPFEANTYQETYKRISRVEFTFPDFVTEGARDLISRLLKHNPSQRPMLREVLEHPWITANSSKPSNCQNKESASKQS
The assay is described as follows: Immunoblot of endogenous Aurora-A in MV4-11 cells after a single dose of degrader. The format is cell-based. Also noted: resulting in degradation of endogenous Aurora-A; endogenous in cells; host or cells: MV4-11. On the procedure:
(§1) Then, the cells were lysed in RIPA lysis buffer (50 mM HEPES pH 7.9, 140 mM NaCl, 1 mM EDTA, 1% Triton X-100, 0.1% SDS, 0.1% sodium deoxycholate) containing protease and phosphatase inhibitors (Sigma) and incubated for 20 minutes at 4° C. in head-over-tail. Lysates were cleared by centrifugation. Protein quantification was done using BCA assay and equal amounts of proteins were separated by BisTris-PAGE and transferred to PVDF membranes (Millipore). The membranes were blocked with 5% (w/v) nonfat dry milk dissolved in TBS-T (20 mM Tris/HCl, pH 7.5, 150 mM NaCl, and 0.1% (v/v) Tween 20) at RT for 1 hour and then incubated with the primary antibody overnight at 4° C. Visualization was done with HRP-labeled secondary antibodies and detected using Chemiluminescent HRP substrate (Millipore) in LAS3000 or LAS4000 Mini (Fuji). The signal was quantified using ImageJ (version 1.52q) or Image Studio Lite (LI-COR Biosciences, Version 5.2.5). […] Error bars represent standard deviations of four biological replicate experiments.

In assay [2] the target is T1, Aurora-A. Briefly: Immunoblot of endogenous Aurora-A, MV4-11 cells treated with various concentrations for 6 hours. It is filed as cell-based. Also noted: resulting in degradation of endogenous Aurora-A; endogenous in cells; host or cells: MV4-11. On the procedure: as §1
Afterwards, cells were lysed in RIPA lysis buffer (50 mM HEPES pH 7.9, 140 mM NaCl, 1 mM EDTA, 1% Triton X-100, 0.1% SDS, 0.1% sodium deoxycholate) containing protease and phosphatase inhibitors (Sigma) and incubated for 20 minutes at 4° C. in head-over-tail. Further processing of resulting cell lysates and immunoblotting was performed as described above.
On the technique in general: In western blotting, separated proteins are transferred to a membrane and probed.

In a further assay the test system is IMR5 cells. Briefly: Annexin-PI FACS apoptosis assay in IMR5 cells with or without Aurora-A T217D expression. As to conditions: 0.5 μM, 72 hours, doxycycline-induced Aurora-A T217D vs EtOH control.
Assay [3] has as its system MV4-11 cells. Briefly: alamarBlue cell viability assay. As to conditions: Homo sapiens, 1 μM (refreshed every 24 h), 72 hours, read-out: viable cells compared to control cells. It is filed as cell-based. On the procedure: The alamarBlue assay (Thermo Fisher Scientific) was performed according to manufacturer's instruction using HS Cell Viability Reagent. The fluorescence was measured in Tecan Infinite-200 using a fluorescence excitation wavelength of 550 and an emission of 600 nm.

For assay [4], the system named is MV4-11 cells. Briefly: Annexin-PI FACS apoptosis assay in MV4-11 cells. It is filed as cell-based, human. As to conditions: 0.5 μM, 72 hours.
Experimental: (§2) For Annexin-PI FACS, the medium in which the cells were cultured was combined with the cells.
(§3) The cells were washed once with ice-cold PBS, resuspended in 100 μl Annexin V Binding buffer (10 mM HEPES pH 7.4, 140 mM NaCl, 2.5 mM CaCl2)) with 2 μl of Annexin V/Pacific Blue dye and incubated for 15 minutes in the dark at room temperature. 400 μl Annexin V Binding buffer with propidium iodide (18.5 μM) was added and the samples were stored cold and in the dark until analysis.

Experimental for IMR5 cells: as §2, §3
Aurora-AT^217D is a functional mutant of Aurora-A. IMR5 cells express Aurora-A^T217D upon incubation with doxycycline (Dox) but not upon incubation with ethanol (control-EtOH).

With `COc1cc(Nc2ncc3c(n2)-c2ccc(Cl)cc2C(c2c(F)cccc2OC)=NC3)ccc1C(=O)NCCOCCOCCC(=O)N[C@H](C(=O)N1C[C@H](O)C[C@H]1C(=O)NCc1ccc(-c2scnc2C)cc1)C(C)(C)C` [JB160, VHL-PEG2-alisertib], the Aurora-A steady-state levels result at Aurora-A [1] (single dose, VHL-ligand-based degraders) is “neither of the VHL-ligand-based degraders JB160 and JB161 reduced Aurora-A steady-state levels”.

With `COc1cc(Nc2ncc3c(n2)-c2ccc(Cl)cc2C(c2c(F)cccc2OC)=NC3)ccc1C(=O)NCCOCCOCCNC(=O)COc1cccc2c1C(=O)N(C1CCC(=O)NC1=O)C2=O` (stereo not drawn) [JB170, thalidomide-PEG2-alisertib], the Aurora-A levels entry at Aurora-A [2] (10 nM) is given as “significantly decreased”. Further, the Aurora-A degradation result on Aurora-A [2] (100 nM and 1 μM) is recorded as “almost complete degradation”. The “Hook effect on Aurora-A depleting activity” value at Aurora-A [2] (high concentrations) was “reversal of the Aurora-A depleting activity was observed”. Also, the “effect of Aurora-A T217D expression on induced apoptosis” value in the assay with IMR5 cells was “completely reverted the induction of apoptosis”. In the assay with MV4-11 cells [3], the viability at 1 µM is 32%. In the assay on MV4-11 cells [4], this compound had an Annexin-positive cells of 56%.

Consider `COc1cc(Nc2ncc3c(n2)-c2ccc(Cl)cc2C(c2c(F)cccc2OC)=NC3)ccc1C(=O)O` [alisertib, reference compound], for which the Aurora-A levels result on Aurora-A [2] (1 μM) is reported as “did not decrease Aurora-A levels, but induced a significant increase”.

Regarding thalidomide-PEG3-alisertib [JB158], the “reduction of Aurora-A protein level” value on Aurora-A [1] (single dose (0.1 μM, 1 μM), compared to control cells) is 62%.
